Assay results from US20050239656A1, “Pyridine compounds or salts thereof and herbicides containing the same” (priority 2002, published 2005).

Experiments:
[1] = tested on: barnyardgrass; assay: Test Example 2: soil surface treatment, upland pot test; type: in vivo, Echinochloa crus-galli L.; conditions: active ingredient 500 g/ha
Method in brief: (§1)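 Pre-emergence: the soil surface was sprayed 1 day after sowing with wettable powder or emulsifiable concentrate diluted in water at 1,500 L/ha, at a predetermined active ingredient amount. Growth control was scored visually 20–28 days after treatment, 0 (untreated) to 100 (complete kill).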

[2] = tested on: corn; assay: Test Example 1: foliage treatment, upland pot test; type: in vivo, Zea mays L.; conditions: crop, active ingredient 500 g/ha, observed 18th to 23rd day, 0 = non-treated, 100 = complete kill
Method in brief: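 Corn seeds were sown in upland field soil held in a 1/170,000 ha pot and grown to the 2.1 to 3.2 leaf stage. A wettable powder or emulsifiable concentrate of the test compound was diluted with water at 500 L/ha, given 0.1% (v/v) agricultural spreader, and sprayed onto the foliage with a small sprayer. Growth controlling degree (%) was scored visually 18th to 23rd days later, from 0 (non-treated) to 100 (complete kill).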

[3] = tested on: redroot pigweed; assay: Test Example 1: foliage treatment, upland pot test; type: in vivo, Amaranthus retroflexus L.; conditions: active ingredient 500 g/ha, observed 18th to 23rd day, 0 = non-treated, 100 = complete kill
[4] = tested on: barnyardgrass; assay: Test Example 3: paddy pot test, application under submerged conditions; type: in vivo, Echinochloa crus-galli L.; conditions: active ingredient 250 g/ha; submerged application at 0.5 leaf stage; visually observed 14 days after application; 0 = non-treated, 100 = complete kill
Method in brief: (§2)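 Seeds were sown in flooded paddy soil (0.5–1 cm water), wapato tubers were planted 1–2 days later, and water was then held at 3–4 cm. Diluted wettable powder or emulsifiable concentrate was pipetted into the water at the 0.5 leaf or primary leaf stage. Growth control was visually scored at 14 days (0–100%).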

[5] = tested on: japanese bulrush; assay: as above; type: in vivo, Scirpus juncoides; conditions: active ingredient 250 g/ha; submerged application at 0.5 leaf stage; visually observed 14 days after application; 0 = non-treated, 100 = complete kill
Method in brief: as §2

[6] = tested on: velvetleaf; assay: Test Example 2: soil surface treatment, upland pot test; type: in vivo, Abutilon theophrasti MEDIC.; conditions: active ingredient 500 g/ha
Method in brief: as §1

[7] = tested on: rice; assay: Test Example 1: foliage treatment, upland pot test; type: in vivo, Oryza sativa L.; conditions: crop, active ingredient 500 g/ha, observed 18th to 23rd day, 0 = non-treated, 100 = complete kill
Method in brief: (§3)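 Each plant species was sprayed once on its foliage, with wheat at 1.3–2.4, soybean at 0.1–0.4, barnyardgrass at 1.3–2.8 and rice at 1.2–2.6 leaves. Visual ratings of growth inhibition, 0 to 100%, followed 18–23 days later.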

[8] = tested on: prickly sida; assay: Test Example 1: foliage treatment, upland pot test; type: in vivo, Sida spinosa L.; conditions: active ingredient 500 g/ha, observed 18th to 23rd day, 0 = non-treated, 100 = complete kill
[9] = tested on: corn; assay: Test Example 2: soil surface treatment, upland pot test; type: in vivo, Zea mays L.; conditions: active ingredient 500 g/ha
Method in brief: as §1

[10] = tested on: soybean; assay: Test Example 1: foliage treatment, upland pot test; type: in vivo, Glycine max Merr.; conditions: crop, active ingredient 500 g/ha, observed 18th to 23rd day, 0 = non-treated, 100 = complete kill
Method in brief: as §3

[11] = tested on: velvetleaf; assay: Test Example 1: foliage treatment, upland pot test; type: in vivo, Abutilon theophrasti MEDIC.; conditions: active ingredient 500 g/ha, observed 18th to 23rd day, 0 = non-treated, 100 = complete kill
[12] = tested on: green foxtail; assay: Test Example 2: soil surface treatment, upland pot test; type: in vivo, Setaria viridis L.; conditions: active ingredient 500 g/ha
Method in brief: as §1

[13] = tested on: rice; assay: as above; type: in vivo, Oryza sativa L.; conditions: active ingredient 500 g/ha
Method in brief: as §1

[14] = tested on: green foxtail; assay: Test Example 1: foliage treatment, upland pot test; type: in vivo, Setaria viridis L.; conditions: active ingredient 500 g/ha, observed 18th to 23rd day, 0 = non-treated, 100 = complete kill
Text: (§4) Upland field soil was put into a 1/170,000 ha pot, and seed of various plants were sown. Then, when the plants reached predetermined leaf stages ((1) barnyardgrass: 1.3 to 2.8 leaf stages, (2) crabgrass: 1.0 to 2.8 leaf stages, (3) green foxtail: 1.3 to 2.6 leaf stages, (4) redroot pigweed: 0.1 to 1.2 leaf stages, (5) prickly sida: 0.1 to 1.2 leaf stages, (6) velvetleaf: 0.1 to 1.2 leaf stages, (7) tall morningglory: 0.1 to 1.5 leaf stages, (8) rice: 1.2 to 2.6 leaf stages, (9) wheat: 1.3 to 2.4 leaf stages, (10) corn, 2.1 to 3.2 leaf stages, (11) soybean: 0.1 to 0.4 leaf stage), a wettable powder or emulsifiable concentrate having the compound of the present invention formulated in accordance with a usual formulation method, was weighed so that the active ingredient would be a predetermined amount, and diluted with water in an amount of 500 L/ha. To the diluted solution, 0.1% (v/v) of agricultural spreader was added. The herbicide thus adjusted was applied by a small size sprayer for foliage treatment. On the 18th to 23rd days after the application of the herbicide, the growth of the respective plants was visually observed, and the herbicidal effects were evaluated by the growth controlling degrees (%) ranging from 0 (equivalent to the non-treated plot) to 100 (complete kill), whereby the results shown in Table 3, were obtained.

[15] = tested on: crabgrass; assay: Test Example 2: soil surface treatment, upland pot test; type: in vivo, Digitaria sanguinalis L.; conditions: active ingredient 500 g/ha
Method in brief: as §1

[16] = tested on: crabgrass; assay: Test Example 1: foliage treatment, upland pot test; type: in vivo, Digitaria sanguinalis L.; conditions: active ingredient 500 g/ha, observed 18th to 23rd day, 0 = non-treated, 100 = complete kill
Text: as §4

[17] = tested on: soybean; assay: Test Example 2: soil surface treatment, upland pot test; type: in vivo, Glycine max Merr.; conditions: active ingredient 500 g/ha
Method in brief: as §1

[18] = tested on: barnyardgrass; assay: Test Example 1: foliage treatment, upland pot test; type: in vivo, Echinochloa crus-galli L.; conditions: active ingredient 500 g/ha, observed 18th to 23rd day, 0 = non-treated, 100 = complete kill
Method in brief: as §3

[19] = tested on: rice (var. Nihonbare); assay: Test Example 3: paddy pot test, transplanted rice; type: in vivo, Oryza sativa L.; conditions: active ingredient 250 g/ha, applied 4th day after transplantation, visually observed 21st day after application, 0 = non-treated, 100 = complete kill
Method in brief: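 Rice (2-leaf stage) was transplanted 3 cm deep into puddled, leveled paddy soil under 3–4 cm flooding. On day 4 after transplanting, diluted wettable powder or emulsifiable concentrate was pipetted onto the water at a predetermined active-ingredient dose. Growth control (0 = untreated, 100 = complete kill) was scored visually 21 days later.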

[20] = tested on: japanese ribbon wapato; assay: Test Example 3: paddy pot test, application under submerged conditions; type: in vivo, Sagittaria pygniaea; conditions: active ingredient 250 g/ha; submerged application at primary leaf stage; visually observed 14 days after application; 0 = non-treated, 100 = complete kill
Method in brief: as §2

[21] = tested on: prickly sida; assay: Test Example 2: soil surface treatment, upland pot test; type: in vivo, Sida spinosa L.; conditions: active ingredient 500 g/ha
Method in brief: as §1

[22] = tested on: redroot pigweed; assay: as above; type: in vivo, Amaranthus retroflexus L.; conditions: active ingredient 500 g/ha
Method in brief: as §1

[23] = observed day 21, 0 = non-treated, 100 = complete kill

CCC(C)C(c1cnccc1C(F)(F)F)N(C)C(=O)Cc1ccccc1 (centres unmarked) [I-260]
Growth controlling degree (%) Barnyardgrass [1, 23]: 80%
Growth controlling degree (%) Corn [2]: 80%
Growth controlling degree (%) Redroot pigweed [3]: 40%
Growth controlling degree (%) Barnyardgrass [4]: 100%
Growth controlling degree (%) Japanese bulrush [5]: 98%
Growth controlling degree (%) Velvetleaf [6, 23]: 70%
Growth controlling degree (%) Rice [7]: 40%
Growth controlling degree (%) Prickly sida [8]: 95%
Growth controlling degree (%) Corn [9, 23]: 30%
Growth controlling degree (%) Soybean [10]: 90%
Growth controlling degree (%) Velvetleaf [11]: 90%
Growth controlling degree (%) Green foxtail [12, 23]: 100%
Growth controlling degree (%) Rice [13, 23]: 10%
Growth controlling degree (%) Green foxtail [14]: 50%
Growth controlling degree (%) Crabgrass [15, 23]: 98%
Growth controlling degree (%) Crabgrass [16]: 80%
Growth controlling degree (%) Soyabean [17, 23]: 20%
Growth controlling degree (%) Barnyardgrass [18]: 80%
Growth controlling degree (%) Rice [19]: 10%
Growth controlling degree (%) Japanese ribbon wapato [20]: 60%
Growth controlling degree (%) Prickly sida [21, 23]: 95%
Growth controlling degree (%) Redroot pigweed [22, 23]: 70%

CC(C)C(c1cnccc1C(F)(F)F)N(C)C(=O)Cc1ccc(F)c(F)c1 (centres unmarked) [I-60]
Growth controlling degree (%) Barnyardgrass ([1]; observed 20th to 28th day): 98%
Growth controlling degree (%) Corn [2]: 70%
Growth controlling degree (%) Redroot pigweed [3]: 60%
Growth controlling degree (%) Barnyardgrass [4]: 100%
Growth controlling degree (%) Japanese bulrush [5]: 70%
Growth controlling degree (%) Velvetleaf ([6]; observed 20th to 28th day): 70%
Growth controlling degree (%) Rice [7]: 50%
Growth controlling degree (%) Prickly sida [8]: 70%
Growth controlling degree (%) Corn ([9]; observed 20th to 28th day): 10%
Growth controlling degree (%) Soybean [10]: 35%
Growth controlling degree (%) Velvetleaf [11]: 90%
Growth controlling degree (%) Green foxtail ([12]; observed 20th to 28th day): 98%
Growth controlling degree (%) Rice ([13]; observed 20th to 28th day): 20%
Growth controlling degree (%) Green foxtail [14]: 70%
Growth controlling degree (%) Crabgrass ([15]; observed 20th to 28th day): 100%
Growth controlling degree (%) Crabgrass [16]: 80%
Growth controlling degree (%) Soyabean ([17]; observed 20th to 28th day): 10%
Growth controlling degree (%) Barnyardgrass [18]: 60%
Growth controlling degree (%) Rice [19]: 30%
Growth controlling degree (%) Japanese ribbon wapato [20]: 95%
Growth controlling degree (%) Prickly sida ([21]; observed 20th to 28th day): 98%
Growth controlling degree (%) Redroot pigweed ([22]; observed 20th to 28th day): 80%
